Structures can show the parent of a compound that is named as a salt. Where two headings read alike, the source gives them in different places.
How the values were obtained:
P. falciparum strain 3D7 = assay: Inhibitor susceptibility dose-response assay (SYBR-Green I), P. falciparum 3D7; format: cell-based, Plasmodium falciparum; conditions: Plasmodium falciparum, read-out: IC50 (S.D.), P. falciparum-3D7
Description: (§1) The P. falciparum strains 3D7 and Dd2 were obtained from the Walter and Eliza Hall Institute (Melbourne, Australia) and the Malaria Research and Reference Reagent Resource, respectively. […] B. divergens parasites were maintained and assayed in mixed stages without synchronization.
(§2) Ring-stage P. falciparum (1%-parasitemia starting, 1%-hematocrit) and asynchronous B.divergens (0.5%-parasitemia starting, 3%-hematocrit) were incubated with plated compounds for 72h, and ring-stage P. knowlesi (1%-parasitemia starting, 1%-hematocrit) for 48h, before lysis and staining with dye. To quantify the species-specificity of the inhibitors, we divided the range of IC50s across the 4 test lines by the average IC50 across the same lines: inhibitors with increased scores show species-specific activity and reduced scores indicate broad-spectrum, pan-species activity.

P. falciparum strain Dd2 = assay: Inhibitor susceptibility dose-response assay (SYBR-Green I), P. falciparum Dd2; format: cell-based, Plasmodium falciparum; conditions: Plasmodium falciparum, read-out: IC50 (S.D.), P. falciparum-Dd2
Description: as §1, §2

[1] = test system: BdC9 line of B. divergens; assay: Inhibitor susceptibility dose-response assay (SYBR-Green I), B. divergens; format: cell-based, Babesia divergens; conditions: Babesia divergens, read-out: IC50 (S.D.), B. divergens
Description: as §1, §2

in vitro = conditions: human
uninfected RBCs [2] = assay: Cellular phosphatidylserine exposure assay (annexin V flow cytometry);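 on all read-outs here: flow cytometry recording 10,000 events per condition, gated on single cells, with the two experiments using blood from separate donors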; conditions: for PS exposure on RBCs, in words: 5x P. falciparum 3D7-IC50, 24, 48, 72h
P. knowlesi YH1 strain = assay: microbe, parasite or virus in culture; format: cell-based, Plasmodium knowlesi; conditions: for IC50: Plasmodium knowlesi, 48 h, read-out: IC50 (S.D.), P. knowlesi
Description: as §1, §2

RBC = conditions: read-out: Micromolar IC50 (RBC), PS exposure, cited from earlier work
P. falciparum (3D7) = assay: Assay for inhibition of parasite proliferation via RBC-targeting (transient exposure of RBCs, wash, then infection); format: cell-based, Plasmodium falciparum; conditions: for antimalarial activity retained after transient exposure of RBCs, relative to continuous exposure to inhibitor: 5x P. falciparum 3D7-IC50, RBC preincubation 4-5 hours then washed, 100% = inhibition with continuous exposure, P<0.01; for inhibitory activity following transient exposure of RBCs, in words: transient vs continued exposure, dose-response format where stated, n=3
Description: All plates were frozen for storage before assay. For assay, duplicate plates were preincubated with donor O+ RBCs at 2% hematocrit at 37°C in 50µL for 4-5 hours. Following preincubation, one but not the other plate in each pair was washed 4X in complete RPMI to dilute inhibitor. We transferred RBCs from both washed and unwashed plates to black, clear bottom 96-well plates (Corning Cat. No. 3904) and supplemented these suspensions with MACS-purified P. falciparum (3D7) schizonts for a starting parasitemia of 0.1% - 0.25% at 1% hematocrit. Following 72h incubation in standard culture conditions, samples were processed for SYBR-Green I signal ([Mandt et al., 2019]). […] To identify host-targeting compounds, we compared DMSO-treated to inhibitor-treated samples (Students t-test, paired). We carried out the assay with 1 µM mefloquine (Sigma-Aldrich Cat. No. M2319) as a control for reversible inhibition. All assays were conducted in biological triplicate, with each experiment utilizing different donor RBCs. For select compounds, we carried out this same assay in a dose-response series (n=3 experiments). Following normalization to DMSO-controls, we assessed inhibitor activity following transient exposure of RBCs by Two-Way ANOVA tests for repeated measures (Graphpad Prism v9): high P values indicate support for the null hypothesis that dose-dependent inhibition is not modulated by dilution after exposure, consistent with a direct inhibitory effect of the compounds on RBCs persisting after transient exposure.

P. falciparum 3D7 = assay: Co-administration with established antimalarials, IC50 shift; format: cell-based, Plasmodium falciparum; conditions: P<0.05
From the text: Our experimental compound set is weighted toward kinase inhibitors, reflecting the high degree of small molecule development in this target space.

uninfected RBCs [3] = conditions: 5x P. falciparum 3D7-IC50; 24, 48, 72h
[4] = 48h, 5x P. falciparum 3D7-IC50, % of RBCs, mean of 2 experiments
[5] = uninfected RBCs (red blood cells), 1% hematocrit
[6] = 24h, 5x P. falciparum 3D7-IC50, % of RBCs, mean of 2 experiments
[7] = 72h, 5x P. falciparum 3D7-IC50, % of RBCs, mean of 2 experiments
[8] = 3D7, 72h, ring-stage, n=3 experiments (or 2 where indicated with *)
[9] = DD2, 72h, ring-stage, n=3 experiments (or 2 where indicated with *)
[10] = 72h, asynchronous, n=3 experiments (or 2 where indicated with *)

Structure (SMILES) | IC50 (P. falciparum strain 3D7; 3D7, 72 h) [µM] | IC50 (P. falciparum strain Dd2; DD2, 72 h) [µM] | IC50 ([1]; 72 h) [µM] | Phosphatidylserine exposure (%) 48h (uninfected RBCs [2]; [4]) [%] | IC50 (P. knowlesi YH1 strain) [µM] | hemolysis at 24 h, 5 x P. falciparum 3D7-IC50 (in vitro; [5]) [%] | hemolysis at 48 h, 5 x P. falciparum 3D7-IC50 (in vitro; [5]) [%] | hemolysis at 72 h, 5 x P. falciparum 3D7-IC50 (in vitro; [5]) [%] | Phosphatidylserine exposure (%) 24h (uninfected RBCs [2]; [6]) [%] | Phosphatidylserine exposure (%) 72h (uninfected RBCs [2]; [7]) [%] | other results
CC(C)CC(O)(CC(C)C)c1cnn(C(=O)N2CCCC2)n1 [AA74-1] | 0.25 | 0.5 | 4 | 2 | – | – | – | – | – | – | hemolysis at 24 h, 5 x P. falciparum 3D7-IC50 (in vitro): -6%; hemolysis at 48 h, 5 x P. falciparum 3D7-IC50 (in vitro): -1%; hemolysis at 72 h, 5 x P. falciparum 3D7-IC50 (in vitro): 2%; Phosphatidylserine exposure (%) 24h (uninfected RBCs [2]): 1%; Phosphatidylserine exposure (%) 72h (uninfected RBCs [2]): 5%
COC[C@H]1Cn2cc(-c3nc(Nc4ccnn4C)ncc3C)nc2C(=O)N1Cc1ccc(F)c(F)c1 [AZD0364] | 16 | 13 | 16 | – | – | – | – | – | – | – | –
O=C(O)C1=CC(=C(c2ccc(O)c(C(=O)O)c2)c2ccc(O)c(C(=O)O)c2)C=CC1=O [Aurintricarboxylic acid (ATA), Aurintricarboxylic acid] | 37 | 44 | 29 | – | – | – | – | – | – | – | –
Nc1ccc(C2CCN(C(=O)c3ccc(Oc4ccc(C(F)(F)F)cc4)cc3)CC2)nn1 [BI 749327] | 25 | 22 | 30 | – | 40 | – | – | – | – | – | –
Clc1ccc(C(c2ccc(Cl)cc2)n2cc[n+](CC(OCc3ccc(Cl)cc3Cl)c3ccc(Cl)cc3Cl)c2)cc1 (stereo not drawn) [Calmidazolium] | 0.5 | 0.6 | 1.2 | 4 | 0.6 | -6 | 7 | 14 | 3 | 9 | –
CCCCCCCCc1ccc(CCC(N)(CO)CO)cc1 [FTY720] | 3.9 | 3.5 | 14 | 21 | 2.2 | 4 | 23 | 25 | 4 | 34 | IC50 (RBC; RBC assay: PS exposure ref PMID 21063113): 5 to 10 µM
O=C1Nc2ccc(I)cc2/C1=C/c1cc(Br)c(O)c(Br)c1 [GW5074] | 19 | 13 | 30 | – | 10 | – | – | – | – | – | –
Oc1ccc2ccccc2c1SSc1c(O)ccc2ccccc12 [IPA-3] | 5 | 5 | 15 | 35 | 4 | -14 | 11 | 30 | 29 | 35 | antimalarial activity retained after transient exposure of RBCs, relative to continuous exposure to inhibitor (P. falciparum (3D7)): ≥ 80%; inhibitory activity following transient exposure of RBCs, in words (P. falciparum (3D7)): statistically indistinguishable from inhibition with continued exposure; IC50 (RBC; RBC assay: PS exposure ref PMID 21214270): < 5 µM
Cc1ccc(NC(=O)c2ccc(CN3CCN(C)CC3)cc2)cc1Nc1nccc(-c2cccnc2)n1 [Imatinib mesylate] | – | – | – | 2 | – | -2 | 2 | 7 | 2 | – | Phosphatidylserine exposure (%) 72h (uninfected RBCs [2]): 4%
Cn1nccc1Nc1nccc(-c2cc3c(s2)C(C)(C)N(CCN2CCOCC2)C3=O)n1 [LY3214996] | 5.2 | 5.7 | 10 | 2 | 6 | -1 | 13 | 16 | 2 | 5 | –
CCn1c2ccccc2c2cc(-n3nncc3-c3ccccc3)ccc21 [MBQ-167] | 33 | 23 | 40 | – | 38 | – | – | – | – | – | –
CN(C)C[C@@H]1CCn2cc(c3ccccc32)C2=C(C(=O)NC2=O)c2cn(c3ccccc23)CCO1 [Ruboxistaurin] | – | – | – | 2 | 3 | -1 | 6 | 14 | 2 | 6 | IC50 (P. falciparum strain 3D7; [8]): 0.9 µM; IC50 (P. falciparum strain Dd2; [9]): 0.9 µM; IC50 [1, 10]: 2.8 µM; reduction in the IC50 of chloroquine in combination with fixed, sublethal dose of test compound (P. falciparum 3D7): ≤ 2 fold; PS exposure on RBCs, in words (uninfected RBCs [2]): similarly low levels
CNC(=O)c1cc(Oc2ccc(NC(=O)Nc3ccc(Cl)c(C(F)(F)F)c3)cc2)ccn1 [Sorafenib] | – | – | – | – | 5 | – | – | – | – | – | IC50 (P. falciparum strain 3D7; [8]): 4.9 µM; IC50 (P. falciparum strain Dd2; [9]): 4 µM; IC50 [1, 10]: 2 µM; IC50 (RBC; RBC assay: PS exposure ref PMID 22907570): > 10 µM; hemolysis at 24 h, 5 x P. falciparum 3D7-IC50 (in vitro): -6%; hemolysis at 48 h, 5 x P. falciparum 3D7-IC50 (in vitro): 16%; hemolysis at 72 h, 5 x P. falciparum 3D7-IC50 (in vitro): 15%; Phosphatidylserine exposure (%) 24h (uninfected RBCs [2]): 7%; Phosphatidylserine exposure (%) 48h (uninfected RBCs [2]): 12%; Phosphatidylserine exposure (%) 72h (uninfected RBCs [2]): 21%
Nc1nc(N)c2nc(-c3cccc(O)c3)c(-c3cccc(O)c3)nc2n1 [TG-100-115] | – | – | – | 3 | 0.8 | -1 | 12 | 18 | 2 | 5 | IC50 (P. falciparum strain 3D7; [8]): 9 µM; IC50 (P. falciparum strain Dd2; [9]): 7 µM; antiparasitic activity in vitro, in words, P. knowlesi (P. knowlesi YH1 strain; P. knowlesi): submicromolar activity; activity against P. knowlesi stronger than against the other parasite species (P. knowlesi YH1 strain; P. knowlesi vs other parasite species): ~ 10 x; IC50 [1, 10]: 13 µM; PS exposure on RBCs, in words (uninfected RBCs [2]): similarly low levels
O=C(O)/C=C/c1cc(Br)c(Br)c(Br)c1Br [Tetrabromocinnamic acid] | > 100 | > 85 | > 80 | – | > 80 | – | – | – | – | – | –
COc1ccc2c(c1)CCC1C2CCC2(C)C(NCCCCCCN3C(=O)C=CC3=O)CCC12 (stereo not drawn) [U-73122] | – | – | – | 9 | 4.4 | -3 | 16 | 13 | 5 | 11 | IC50 (P. falciparum strain 3D7; [8]): 4 µM; IC50 (P. falciparum strain Dd2; [9]): 5 µM; IC50 [1, 10]: 20 µM; antimalarial activity retained after transient exposure of RBCs, relative to continuous exposure to inhibitor (P. falciparum (3D7)): ≥ 80%; inhibitory activity following transient exposure of RBCs, in words (P. falciparum (3D7)): statistically indistinguishable from inhibition with continued exposure; hemolysis of RBCs, in words (uninfected RBCs [3]): lower levels; PS exposure on RBCs, in words (uninfected RBCs [2]): lower levels
OC(c1cc(C(F)(F)F)nc2c(C(F)(F)F)cccc12)C1CCCCN1 (stereo not drawn) [mefloquine] | – | – | – | – | – | – | – | – | – | – | inhibitory activity following transient exposure of RBCs, in words (P. falciparum (3D7)): does not retain antimalarial activity at any dose

— article PMC10988762, “Inhibition of malaria and babesiosis parasites by putative red blood cell targeting small molecules” (Frontiers in Cellular and Infection Microbiology, 2024)
